{"source": "ChEMBL document CHEMBL1153552", "about": "“Comparative in vitro pharmacodynamics of caspofungin, micafungin, and anidulafungin against germinated and nongerminated Aspergillus conidia” (2008)", "key": {"Aspergillus terreus [1]": {"tested_on": "Aspergillus terreus", "assay": "Antifungal activity against germinated Aspergillus terreus assessed as absence of visual fungal growth at 64 ug/mL", "format": "functional, organism-based"}, "Aspergillus fumigatus [2]": {"tested_on": "Aspergillus fumigatus", "assay": "Antifungal activity against nongerminated Aspergillus fumigatus assessed as absence of visual fungal growth at 64 ug/mL", "format": "functional, organism-based"}, "Aspergillus flavus [3]": {"tested_on": "Aspergillus flavus", "assay": "Ratio of log2 of MEC for germinated Aspergillus flavus to log2 of MEC for nongerminated Aspergillus flavus", "format": "functional"}, "Aspergillus terreus [4]": {"tested_on": "Aspergillus terreus", "assay": "Effect on nongerminated Aspergillus terreus metabolic activity assessed as drug concentration at which fungal metabolic activity occurs after 2 hrs by XTT assay", "format": "functional"}, "Aspergillus flavus [5]": {"tested_on": "Aspergillus flavus", "assay": "Induction of maximal metabolic inhibition in nongerminated Aspergillus flavus assessed as minimal metabolic activity Ymin after 2 hrs by XTT assay", "format": "functional", "parameters": "scale not given: the % may be the effect or the level left"}, "Aspergillus fumigatus [6]": {"tested_on": "Aspergillus fumigatus", "assay": "Antifungal activity against germinated Aspergillus fumigatus assessed as lowest drug concentration that produced short, stubby and highly branched hyphae after 48 hrs by microscopic analysis", "format": "functional", "details": "read-out: MEC"}, "Aspergillus flavus [7]": {"tested_on": "Aspergillus flavus", "assay": "Antifungal activity against nongerminated Aspergillus flavus assessed as absence of visual fungal growth at 64 ug/mL", "format": "functional, organism-based"}, "Aspergillus fumigatus [8]": {"tested_on": "Aspergillus fumigatus", "assay": "Antifungal activity against nongerminated Aspergillus fumigatus assessed as absence of visual fungal growth at 128 ug/mL", "format": "functional, organism-based"}, "Aspergillus terreus [9]": {"tested_on": "Aspergillus terreus", "assay": "Ratio of log2 of MEC for germinated Aspergillus terreus to log2 of MEC for nongerminated Aspergillus terreus", "format": "functional"}, "Aspergillus terreus [10]": {"tested_on": "Aspergillus terreus", "assay": "Induction of maximal metabolic inhibition in germinated Aspergillus terreus assessed as minimal metabolic activity Ymin after 2 hrs by XTT assay", "format": "functional", "parameters": "scale not given: the % may be the effect or the level left"}, "Aspergillus flavus [11]": {"tested_on": "Aspergillus flavus", "assay": "Antifungal activity against germinated Aspergillus flavus assessed as lowest drug concentration that produced short, stubby and highly branched hyphae after 48 hrs by microscopic analysis", "format": "functional", "details": "read-out: MEC"}, "Aspergillus fumigatus [12]": {"tested_on": "Aspergillus fumigatus", "assay": "Antifungal activity against germinated Aspergillus fumigatus assessed as absence of visual fungal growth at 64 ug/mL", "format": "functional, organism-based"}, "Aspergillus flavus [13]": {"tested_on": "Aspergillus flavus", "assay": "Antifungal activity against nongerminated Aspergillus flavus assessed as absence of visual fungal growth at 128 ug/mL", "format": "functional, organism-based"}, "Aspergillus terreus [14]": {"tested_on": "Aspergillus terreus", "assay": "Induction of maximal metabolic inhibition in nongerminated Aspergillus terreus assessed as minimal metabolic activity Ymin after 2 hrs by XTT assay", "format": "functional", "parameters": "scale not given: the % may be the effect or the level left"}, "Aspergillus flavus [15]": {"tested_on": "Aspergillus flavus", "assay": "Effect on Aspergillus flavus metabolic activity assessed number of twofold drug dilutions required for germinated fungal metabolic activity to nongerminated fungal metabolic activity", "format": "functional"}, "Aspergillus fumigatus [16]": {"tested_on": "Aspergillus fumigatus", "assay": "Ratio of log2 of MEC for germinated Aspergillus fumigatus to log2 of MEC for nongerminated Aspergillus fumigatus", "format": "functional"}, "Aspergillus fumigatus [17]": {"tested_on": "Aspergillus fumigatus", "assay": "Effect on Aspergillus fumigatus metabolic activity assessed number of twofold drug dilutions required for germinated fungal metabolic activity to nongerminated fungal metabolic activity", "format": "functional"}, "Aspergillus flavus [18]": {"tested_on": "Aspergillus flavus", "assay": "Antifungal activity against germinated Aspergillus flavus assessed as absence of visual fungal growth at 128 ug/mL", "format": "functional, organism-based"}, "Aspergillus flavus [19]": {"tested_on": "Aspergillus flavus", "assay": "Induction of maximal metabolic inhibition in germinated Aspergillus flavus assessed as minimal metabolic activity Ymin after 2 hrs by XTT assay", "format": "functional", "parameters": "scale not given: the % may be the effect or the level left"}, "Aspergillus terreus [20]": {"tested_on": "Aspergillus terreus", "assay": "Effect on Aspergillus terreus metabolic activity assessed number of twofold drug dilutions required for germinated fungal metabolic activity to nongerminated fungal metabolic activity", "format": "functional"}, "Aspergillus flavus [21]": {"tested_on": "Aspergillus flavus", "assay": "Antifungal activity against germinated Aspergillus flavus assessed as absence of visual fungal growth at 64 ug/mL", "format": "functional, organism-based"}, "Aspergillus fumigatus [22]": {"tested_on": "Aspergillus fumigatus", "assay": "Effect on germinated Aspergillus fumigatus metabolic activity assessed as drug concentration at which fungal metabolic activity occurs after 2 hrs by XTT assay", "format": "functional"}, "Aspergillus terreus [23]": {"tested_on": "Aspergillus terreus", "assay": "Antifungal activity against germinated Aspergillus terreus assessed as lowest drug concentration that produced short, stubby and highly branched hyphae after 48 hrs by microscopic analysis", "format": "functional", "details": "read-out: MEC"}, "Aspergillus terreus [24]": {"tested_on": "Aspergillus terreus", "assay": "Effect on germinated Aspergillus terreus metabolic activity assessed as drug concentration at which fungal metabolic activity occurs after 2 hrs by XTT assay", "format": "functional"}, "Aspergillus fumigatus [25]": {"tested_on": "Aspergillus fumigatus", "assay": "Induction of maximal metabolic inhibition in germinated Aspergillus fumigatus assessed as minimal metabolic activity Ymin after 2 hrs by XTT assay", "format": "functional", "parameters": "scale not given: the % may be the effect or the level left"}, "Aspergillus terreus [26]": {"tested_on": "Aspergillus terreus", "assay": "Antifungal activity against nongerminated Aspergillus terreus assessed as absence of visual fungal growth at 64 ug/mL", "format": "functional, organism-based"}, "Aspergillus flavus [27]": {"tested_on": "Aspergillus flavus", "assay": "Effect on germinated Aspergillus flavus metabolic activity assessed as drug concentration at which fungal metabolic activity occurs after 2 hrs by XTT assay", "format": "functional"}, "Aspergillus terreus [28]": {"tested_on": "Aspergillus terreus", "assay": "Antifungal activity against nongerminated Aspergillus terreus assessed as absence of visual fungal growth at 128 ug/mL", "format": "functional, organism-based"}, "Aspergillus terreus [29]": {"tested_on": "Aspergillus terreus", "assay": "Antifungal activity against germinated Aspergillus terreus assessed as absence of visual fungal growth at 128 ug/mL", "format": "functional, organism-based"}, "Aspergillus fumigatus [30]": {"tested_on": "Aspergillus fumigatus", "assay": "Antifungal activity against nongerminated Aspergillus fumigatus assessed as lowest drug concentration that produced short, stubby and highly branched hyphae after 48 hrs by microscopic analysis", "format": "functional", "details": "read-out: MEC"}, "Aspergillus fumigatus [31]": {"tested_on": "Aspergillus fumigatus", "assay": "Induction of maximal metabolic inhibition in nongerminated Aspergillus fumigatus assessed as minimal metabolic activity Ymin after 2 hrs by XTT assay", "format": "functional", "parameters": "scale not given: the % may be the effect or the level left"}, "Aspergillus terreus [32]": {"tested_on": "Aspergillus terreus", "assay": "Antifungal activity against nongerminated Aspergillus terreus assessed as lowest drug concentration that produced short, stubby and highly branched hyphae after 48 hrs by microscopic analysis", "format": "functional", "details": "read-out: MEC"}, "Aspergillus flavus [33]": {"tested_on": "Aspergillus flavus", "assay": "Antifungal activity against nongerminated Aspergillus flavus assessed as lowest drug concentration that produced short, stubby and highly branched hyphae after 48 hrs by microscopic analysis", "format": "functional", "details": "read-out: MEC"}, "Aspergillus fumigatus [34]": {"tested_on": "Aspergillus fumigatus", "assay": "Effect on nongerminated Aspergillus fumigatus metabolic activity assessed as drug concentration at which fungal metabolic activity occurs after 2 hrs by XTT assay", "format": "functional"}, "Aspergillus fumigatus [35]": {"tested_on": "Aspergillus fumigatus", "assay": "Antifungal activity against germinated Aspergillus fumigatus assessed as absence of visual fungal growth at 128 ug/mL", "format": "functional, organism-based"}, "Aspergillus fumigatus [36]": {"tested_on": "Aspergillus fumigatus", "assay": "Antifungal activity against nongerminated Aspergillus fumigatus assessed as short, stubby and highly branched hyphae after 48 hrs by microscopy analysis", "format": "functional, organism-based"}, "Aspergillus flavus [37]": {"tested_on": "Aspergillus flavus", "assay": "Effect on nongerminated Aspergillus flavus metabolic activity assessed as drug concentration at which fungal metabolic activity occurs after 2 hrs by XTT assay", "format": "functional"}}, "note": "Calls of active or inactive are those of the source. The calls are words filed in the database; no cut-off is given here. Numbered stars: 1 amine (or outer) side, 2 acyl side, 3 side chain; on linkers, the order of the positions; unused ones are H or OH. Bridge positions count the residues as written; N and C are the ends. Square brackets hold non-standard residues; d marks the D form. Peptide text beside a SMILES is read from it. * marks the point of attachment. hTyr(3S-OH,4S-OH,3'-OSO3H) = N[C@H](C(=O)O)[C@H](O)[C@@H](O)c1ccc(O)c(OS(=O)(=O)O)c1; Orn(4R-OH,5R-OH) = O=C([C@H](C[C@@H](O)[C@@H](O)N[*:3])N[*:1])[*:2]; Pro(3S-OH,4S-Me) = C[C@H]1CN[C@H](C(=O)O)[C@H]1O; X1 = CCCCCOc1ccc(-c2cc(-c3ccc(C(=O)*)cc3)no2)cc1; Gln(3R-OH) = NC(=O)C[C@@H](O)[C@H](N)C(=O)O; Hyp = O=C(O)[C@@H]1C[C@@H](O)CN1"}
{"smiles": "CCCCCOc1ccc(-c2cc(-c3ccc(C(=O)N[C@H]4C[C@@H](O)[C@@H](O)NC(=O)[C@@H]5[C@@H](O)[C@@H](C)CN5C(=O)[C@H]([C@H](O)CC(N)=O)NC(=O)[C@H]([C@H](O)[C@@H](O)c5ccc(O)c(OS(=O)(=O)O)c5)NC(=O)[C@@H]5C[C@@H](O)CN5C(=O)[C@H]([C@@H](C)O)NC4=O)cc3)no2)cc1", "note": "[MICAFUNGIN] (X1-[Orn(4R-OH,5R-OH)]T[Hyp][hTyr(3S-OH,4S-OH,3'-OSO3H)][Gln(3R-OH)][Pro(3S-OH,4S-Me)]; lactam 1-C)", "values": [{"measurement": "Activity", "setting": "Aspergillus terreus [1]", "value": "inactive"}, {"measurement": "Activity", "setting": "Aspergillus fumigatus [2]", "value": "inactive"}, {"measurement": "Ratio", "setting": "Aspergillus flavus [3]", "value": 2}, {"measurement": "EC5", "setting": "Aspergillus terreus [4]", "value": 0.07, "unit": "µg/mL"}, {"measurement": "Activity", "setting": "Aspergillus flavus [5]", "value": 17, "unit": "%"}, {"measurement": "minimal effective concentration", "setting": "Aspergillus fumigatus [6]", "value": 0.25, "unit": "µg/mL"}, {"measurement": "Activity", "setting": "Aspergillus flavus [7]", "value": "inactive"}, {"measurement": "Activity", "setting": "Aspergillus fumigatus [8]", "value": "inactive"}, {"measurement": "Ratio", "setting": "Aspergillus terreus [9]", "value": 1}, {"measurement": "Activity", "setting": "Aspergillus terreus [10]", "value": 37, "unit": "%"}, {"measurement": "minimal effective concentration", "setting": "Aspergillus flavus [11]", "value": 0.5, "unit": "µg/mL"}, {"measurement": "Activity", "setting": "Aspergillus fumigatus [12]", "value": "inactive"}, {"measurement": "Activity", "setting": "Aspergillus flavus [13]", "value": "inactive"}, {"measurement": "Activity", "setting": "Aspergillus terreus [14]", "value": 29, "unit": "%"}, {"measurement": "Ratio", "setting": "Aspergillus flavus [15]", "value": 1.57}, {"measurement": "Ratio", "setting": "Aspergillus fumigatus [16]", "value": 1}, {"measurement": "Ratio", "setting": "Aspergillus fumigatus [17]", "value": 0.67}, {"measurement": "Activity", "setting": "Aspergillus flavus [18]", "value": "inactive"}, {"measurement": "Activity", "setting": "Aspergillus flavus [19]", "value": 20, "unit": "%"}, {"measurement": "Ratio", "setting": "Aspergillus terreus [20]", "value": 2.04}, {"measurement": "Activity", "setting": "Aspergillus flavus [21]", "value": "inactive"}, {"measurement": "EC5", "setting": "Aspergillus fumigatus [22]", "value": 0.05, "unit": "µg/mL"}, {"measurement": "minimal effective concentration", "setting": "Aspergillus terreus [23]", "value": 0.25, "unit": "µg/mL"}, {"measurement": "EC5", "setting": "Aspergillus terreus [24]", "value": 0.14, "unit": "µg/mL"}, {"measurement": "Activity", "setting": "Aspergillus fumigatus [25]", "value": 29, "unit": "%"}, {"measurement": "Activity", "setting": "Aspergillus terreus [26]", "value": "inactive"}, {"measurement": "EC5", "setting": "Aspergillus flavus [27]", "value": 0.14, "unit": "µg/mL"}, {"measurement": "Activity", "setting": "Aspergillus terreus [28]", "value": "inactive"}, {"measurement": "Activity", "setting": "Aspergillus terreus [29]", "value": "inactive"}, {"measurement": "minimal effective concentration", "setting": "Aspergillus fumigatus [30]", "value": 0.06, "unit": "µg/mL"}, {"measurement": "Activity", "setting": "Aspergillus fumigatus [31]", "value": 25, "unit": "%"}, {"measurement": "minimal effective concentration", "setting": "Aspergillus terreus [32]", "value": 0.12, "unit": "µg/mL"}, {"measurement": "minimal effective concentration", "setting": "Aspergillus flavus [33]", "value": 0.12, "unit": "µg/mL"}, {"measurement": "EC5", "setting": "Aspergillus fumigatus [34]", "value": 0.04, "unit": "µg/mL"}, {"measurement": "Activity", "setting": "Aspergillus fumigatus [35]", "value": "inactive"}, {"measurement": "Activity", "setting": "Aspergillus fumigatus [36]", "value": "Active"}, {"measurement": "EC5", "setting": "Aspergillus flavus [37]", "value": 0.05, "unit": "µg/mL"}]}
